Experimental data: article PMC9203742 (Nature Communications, 2022)
Several values for one entry are separate records, joined by “and”; a condition that tells them apart may be missing. Equal entries are not always repeated.

What was measured:
mGlu1 A59H/A265H mutant [1] = target: T1, mGlu1 A59H/A265H mutant (Rattus norvegicus, UniProt P23385, A265H/A59H); test: Fura-2 Ca2+ imaging in HEK293 cells expressing mGlu1 A59H/A265H; type: cell-based; settings: Fig.1e
T1 construct: expressed in transfected cells; host or cells: HEK293
T1 sequence (P23385 19-1199 A59H/A265H): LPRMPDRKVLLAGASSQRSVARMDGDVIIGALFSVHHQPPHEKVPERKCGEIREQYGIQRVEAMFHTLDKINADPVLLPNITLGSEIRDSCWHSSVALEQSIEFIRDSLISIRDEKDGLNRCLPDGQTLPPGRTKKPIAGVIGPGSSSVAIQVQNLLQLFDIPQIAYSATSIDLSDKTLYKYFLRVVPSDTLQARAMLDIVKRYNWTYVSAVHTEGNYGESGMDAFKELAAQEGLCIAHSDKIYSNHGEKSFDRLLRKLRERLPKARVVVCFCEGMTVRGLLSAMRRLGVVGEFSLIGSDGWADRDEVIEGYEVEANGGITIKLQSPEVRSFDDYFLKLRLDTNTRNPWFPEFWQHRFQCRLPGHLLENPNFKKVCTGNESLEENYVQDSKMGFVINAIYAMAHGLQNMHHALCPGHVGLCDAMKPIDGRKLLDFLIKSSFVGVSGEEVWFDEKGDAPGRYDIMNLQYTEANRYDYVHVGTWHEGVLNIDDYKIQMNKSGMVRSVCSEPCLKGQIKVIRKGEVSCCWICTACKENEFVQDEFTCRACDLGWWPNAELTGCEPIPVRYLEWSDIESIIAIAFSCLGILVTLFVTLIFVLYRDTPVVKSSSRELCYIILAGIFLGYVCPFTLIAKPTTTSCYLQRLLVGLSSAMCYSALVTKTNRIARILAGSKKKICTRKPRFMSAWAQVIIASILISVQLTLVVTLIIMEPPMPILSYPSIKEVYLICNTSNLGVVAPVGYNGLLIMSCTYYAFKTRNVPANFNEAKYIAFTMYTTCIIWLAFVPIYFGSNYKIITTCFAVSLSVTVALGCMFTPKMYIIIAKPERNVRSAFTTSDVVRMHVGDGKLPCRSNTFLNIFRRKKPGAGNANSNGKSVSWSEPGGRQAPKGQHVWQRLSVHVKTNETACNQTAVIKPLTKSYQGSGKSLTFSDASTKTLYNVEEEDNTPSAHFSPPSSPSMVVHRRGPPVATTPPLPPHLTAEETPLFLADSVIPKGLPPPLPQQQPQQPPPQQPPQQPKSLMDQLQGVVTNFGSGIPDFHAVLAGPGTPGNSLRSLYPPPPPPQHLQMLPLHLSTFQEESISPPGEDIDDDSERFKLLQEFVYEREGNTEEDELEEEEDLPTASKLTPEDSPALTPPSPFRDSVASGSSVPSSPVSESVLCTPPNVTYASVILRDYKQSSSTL

mGlu1 P57H/N264H mutant = target: T2, mGlu1 P57H/N264H mutant (Rattus norvegicus, UniProt P23385, N264H/P57H); test: Fura-2 Ca2+ imaging in HEK293 cells expressing mGlu1 P57H/N264H; type: cell-based
T2 construct: expressed in transfected cells; host or cells: HEK293
T2 sequence (P23385 19-1199 P57H/N264H): as the sequence (P23385 19-1199 A59H/A265H) above, with P39H, H41A, N246H, H247A counted along it

[2] = tested on: HEK293 cells, vector control; test: Fura-2 Ca2+ imaging in HEK293 cells transfected with control vector (Vec); type: cell-based
mGlu1 A59H/G266H mutant [3] = target: T3, mGlu1 A59H/G266H mutant (Rattus norvegicus, UniProt P23385, A59H/G266H); test: Fura-2 Ca2+ imaging in HEK293 cells expressing mGlu1 A59H/G266H; type: cell-based; settings: Fig.1e
T3 construct: expressed in transfected cells; host or cells: HEK293
T3 sequence (P23385 19-1199 A59H/G266H): as the sequence (P23385 19-1199 A59H/A265H) above, with H247A, G248H counted along it

[4] = tested on: mGlu1 construct not given; test: Fura-2 Ca2+ imaging in HEK293 cells, source data Suppl Fig1, middle group (c9-c17); construct not given; type: cell-based, rat; parameters: unit not given here; settings: single-cell values, cells #15-#20, middle group of third block
Text: (§1) Supplement 41467_2022_30828_MOESM6_ESM.zip/Ojima et al_source data_Suppl Fig.xlsx, sheet "Suppl Fig1" | column: Glu; NiCl2; CuCl2; ZnCl2; CdCl2; Na2PdCl2; Pd(bpy)

mGlu1 E60H/N264H mutant = target: T4, mGlu1 E60H/N264H mutant (Rattus norvegicus, UniProt P23385, E60H/N264H); test: Fura-2 Ca2+ imaging in HEK293 cells expressing mGlu1 E60H/N264H; type: cell-based
T4 construct: expressed in transfected cells; host or cells: HEK293
T4 sequence (P23385 19-1199 E60H/N264H): as the sequence (P23385 19-1199 A59H/A265H) above, with H41A, E42H, N246H, H247A counted along it

[5] = tested on: mGlu1 construct not given; test: Fura-2 Ca2+ imaging in HEK293 cells, source data Suppl Fig1, right group (c18-c26); construct not given; type: cell-based, rat; parameters: unit not given here; settings: single-cell values, cells #15-#20, right group of third block
Text: as §1

[6] = tested on: HEK293 cells, vector control; test: Fura-2 Ca2+ imaging in HEK293 cells transfected with control vector (Vec); type: cell-based; settings: Fig.1e
Text: Supplement 41467_2022_30828_MOESM6_ESM.zip/Ojima et al_source data_Main Figure.xlsx, sheet "Fig.1e" | column: Vec

WT mGlu1 = target: T5, WT mGlu1 (Rattus norvegicus, UniProt P23385); type: cell-based
T5 construct: expressed in transfected cells; host or cells: HEK293
T5 sequence (P23385 19-1199): as the sequence (P23385 19-1199 A59H/A265H) above, with H41A, H247A counted along it

mGlu1 A59H/G266H mutant [7] = target: T3, mGlu1 A59H/G266H mutant; test: Fura-2 Ca2+ imaging in HEK293 cells expressing mGlu1 A59H/G266H; type: cell-based; settings: single-cell values
mGlu1 P58H/N264H mutant = target: T6, mGlu1 P58H/N264H mutant (Rattus norvegicus, UniProt P23385, N264H/P58H); test: Fura-2 Ca2+ imaging in HEK293 cells expressing mGlu1 P58H/N264H; type: cell-based
T6 construct: expressed in transfected cells; host or cells: HEK293
T6 sequence (P23385 19-1199 P58H/N264H): as the sequence (P23385 19-1199 A59H/A265H) above, with P40H, H41A, N246H, H247A counted along it

mGlu1 K61H/N264H mutant = target: T7, mGlu1 K61H/N264H mutant (Rattus norvegicus, UniProt P23385, K61H/N264H); test: Fura-2 Ca2+ imaging in HEK293 cells expressing mGlu1 K61H/N264H; type: cell-based
T7 construct: expressed in transfected cells; host or cells: HEK293
T7 sequence (P23385 19-1199 K61H/N264H): as the sequence (P23385 19-1199 A59H/A265H) above, with H41A, K43H, N246H, H247A counted along it

mGlu1 A59H/N264H mutant = target: T8, mGlu1 A59H/N264H mutant (Rattus norvegicus, UniProt P23385, A59H/N264H); test: Fura-2 Ca2+ imaging in HEK293 cells expressing mGlu1 A59H/N264H; type: cell-based
T8 construct: expressed in transfected cells; host or cells: HEK293
T8 sequence (P23385 19-1199 A59H/N264H): as the sequence (P23385 19-1199 A59H/A265H) above, with N246H, H247A counted along it

[8] = tested on: mGlu1 construct not given; test: Fura-2 Ca2+ imaging in HEK293 cells, source data Suppl Fig1, left group (c0-c8); construct not given; type: cell-based, rat; parameters: unit not given here; settings: single-cell values, cells #15-#20, left group of third block
Text: as §1

mGlu1 A59H/A265H mutant [9] = target: T1, mGlu1 A59H/A265H mutant; test: Fura-2 Ca2+ imaging in HEK293 cells expressing mGlu1 A59H/A265H; type: cell-based; settings: single-cell values
[10] = tested on: HEK293 cells, control vector; test: Inositol-1-phosphate (IP1) accumulation assay, HEK293 cells transfected with control vector; type: cell-based; settings: 100 µM Glu; Vec; listed as Glu

[Cl-].[Cl-].[Zn+2] [ZnCl2]
Ca2+ response (delta ratio), A59H/A265H (mGlu1 A59H/A265H mutant [1]): 0.009782 | Ca2+ response (delta ratio), P57H/N264H (mGlu1 P57H/N264H mutant; Fig.1e): -0.002972 | Ca2+ response of individual cells (source data Suppl Fig1), P57H/N264H (mGlu1 P57H/N264H mutant; single-cell values #1-#20, P57H/N264H): -0.0004538 and -0.005931 and -0.01735 and 0.02302 and 0.0025 and -0.02347 and -0.004954 and -0.01065 (2×) and 0.01802 and -0.01439 and 0.007646 and -0.01182 and 0.0001154 and -0.0004462 and -0.009846 and 0.01085 and 0.0122 and -0.009315 and -0.01449 | Ca2+ response of individual cells (source data Suppl Fig1), Vec ([2]; single-cell values #1-#20): -0.02208 and -0.02062 and -0.01588 and -0.01264 and 0.0006769 and -0.01746 and -1.54E-05 and -0.004454 and -0.02104 and -0.008908 and -0.02662 and 0.006915 and 0.02477 and 0.001469 and -0.01177 and -0.03347 and -0.02945 and -0.01742 and 0.01306 and -0.02001 | Ca2+ response (delta ratio), A59H/G266H (mGlu1 A59H/G266H mutant [3]): -0.01208 | Ca2+ response of individual cells (source data, sheet Suppl Fig1) [4]: -0.0199 and 0.02527 and 0.05882 and -0.05132 and 0.1351 and 0.01718 | Ca2+ response (delta ratio), E60H/N264H (mGlu1 E60H/N264H mutant; Fig.1e): -0.009416 | Ca2+ response of individual cells (source data Suppl Fig1), E60H/N264H (mGlu1 E60H/N264H mutant; single-cell values #1-#20, E60H/N264H): -0.005892 and -0.03255 and -0.003646 and -0.02008 and -0.003615 and 0.05645 and 0.08788 and -0.01442 and -0.01449 and -0.04369 and -0.008223 and -0.02082 and -0.01922 and -0.01408 and -0.01929 and -0.02112 and -0.02071 and -0.02984 and -0.03302 and -0.007923 | Ca2+ response of individual cells (source data, sheet Suppl Fig1) [5]: -0.02524 and -0.001377 and -0.01992 and 0.004231 and -0.03185 and -0.008431 | Ca2+ response (delta ratio), Vec [6]: -0.01075 | Ca2+ response (delta ratio), WT (WT mGlu1; Fig.1e): 0.00492 | Ca2+ response of individual cells (source data Suppl Fig1), WT (WT mGlu1; single-cell values #1-#20, WT): -0.0004923 and -0.006346 and -0.007608 and 0.01052 and -0.003585 and 0.007785 and 0.05315 and -0.005223 and -0.002885 and -0.002892 and -0.004792 and -0.003569 and 0.002877 and -0.04019 and -0.002708 and -0.06293 and -0.001754 and 0.176 and -0.006623 and -0.0003538 | Ca2+ response of individual cells (source data Suppl Fig1), A59H/G266H (mGlu1 A59H/G266H mutant [7]): -0.005723 and -0.01571 and -0.007938 and -0.01115 and -0.002308 and 0.008723 and -0.07331 and -0.0327 and -0.004923 and 0.01074 and -0.0004923 and -0.02615 and -0.03942 and 0.04141 | Ca2+ response (delta ratio), P58H/N264H (mGlu1 P58H/N264H mutant; Fig.1e): -0.00161 | Ca2+ response of individual cells (source data Suppl Fig1), P58H/N264H (mGlu1 P58H/N264H mutant; single-cell values #1-#20, P58H/N264H): -0.01858 and -0.04214 and -0.01035 and -0.0081 and -0.006638 and 0.08488 and -0.007315 and -0.007238 and -0.01048 and -0.008431 and -0.001785 and 0.004277 and -0.0127 and -0.01994 and 0.003692 and 0.002931 and 0.009408 and 0.02135 and 0.0149 and -0.01995 | Ca2+ response (delta ratio), K61H/N264H (mGlu1 K61H/N264H mutant; Fig.1e): 0.01018 | Ca2+ response of individual cells (source data Suppl Fig1), K61H/N264H (mGlu1 K61H/N264H mutant; single-cell values, K61H/N264H): 0.0106 and 0.02204 and -0.0158 and -0.01138 and -0.0001308 and -0.01253 and -0.01344 and 0.3114 and -0.05129 and -0.02739 and -0.01424 and -0.005346 and 0.09999 and -0.01502 | Ca2+ response (delta ratio), A59H/N264H (mGlu1 A59H/N264H mutant; Fig.1e): 0.00725 | Ca2+ response of individual cells (source data Suppl Fig1), A59H/N264H (mGlu1 A59H/N264H mutant; single-cell values #1-#20, A59H/N264H): -0.01136 and 0.3757 and -0.01768 and -0.004631 and 0.0006077 and -0.008377 and -0.02044 and 0.005169 and -0.005323 and -0.01275 and -0.1876 and -0.01388 and 0.06164 and -0.009792 and -0.01495 and -0.03905 and -8.46E-05 and 0.03053 and 0.01748 and -0.0002154 | Ca2+ response of individual cells (source data, sheet Suppl Fig1) [8]: -0.009 and -0.001631 and -0.01245 and -0.02388 and -0.01824 and -0.008531 | Ca2+ response of individual cells (source data Suppl Fig1), A59H/A265H (mGlu1 A59H/A265H mutant [9]): 0.02775 and 0.01526 and -0.01 and -0.0009538 and -0.04594 and 0.01742 and 0.01817 and 0.02166 and -0.009515 and -0.04688 and 0.04091 and -0.03576 and 0.04018 and -0.001815

N[C@@H](CCC(=O)O)C(=O)O [glutamate, reference compound]
IP1 accumulation, single experiments [10]: 1.025 and 1.123 and 0.98 | Ca2+ response of individual cells (source data Suppl Fig1), Vec ([2]; single-cell values #1-#20, listed as Glu): 0.01056 and 0.06409 and 0.01964 and 0.006185 and 0.01272 and 0.02269 and 0.02795 and 0.001992 and 0.03471 and 0.04057 and 0.0119 and 0.01116 and 0.01651 and 0.008954 and 0.06266 and 0.02138 and 0.004577 and 0.01188 and 0.01429 and 0.0107 | Ca2+ response of individual cells (source data, sheet Suppl Fig1) ([4]; listed as Glu): 0.1431 and 0.7212 and 0.03709 and 0.1609 and 0.01695 and 0.7758 | Ca2+ response of individual cells (source data, sheet Suppl Fig1) ([5]; listed as Glu): 0.5202 and 0.5869 and 0.3843 and 0.3042 and 0.505 and 0.02158 | Ca2+ response of individual cells (source data, sheet Suppl Fig1) ([8]; listed as Glu): 0.1813 and 0.3548 and 0.1848 and 0.1996 and 0.1287 and 0.1577
